Measured values from patent US11141419B1, “Use of iminosugars as prophylactic and therapy against COVID-19 / SARS-CoV-2” (priority 2020, dated 2021).
Read-outs that look alike come from different tables or passages of the source.

Assays:
[1] = test system: COVID-19; settings: repurposed drug regimens; cited from earlier work
[2] = test system: SARS-CoV-2/WA/1 virus; experiment: Plaque reduction assay in Vero E6 cells; format: cell-based; settings: Vero E6 cells pre-treated and overlaid with iminosugar, 40 PFU, 48 hrs, duplicate wells, read-out: IC50 against SARS-CoV-2 (plaque formation)
[3] = test system: SARS-CoV-2 virus; format: cell-based; settings: Vero E6, MOI 0.01, 100 μM iminosugar, 24 hrs, supernatant
[4] = test system: Lentiviruses expressing SARS-CoV-2 spike glycoprotein (Wuhan isolate, P.1, B.1.1.7, B.1.351); format: cell-based; settings: 100 μM iminosugar, 24 hrs pre-treatment, luciferase after 48 hrs
[5] = test system: SARS-CoV-2; format: cell-based; settings: Huh7.0, lower MOI (0.1), 250 μM, three days
[6] = test system: Huh7.0 human cells; experiment: Cell viability (MTS assay) of uninfected Huh7.0 cells; settings: various concentrations, three days
[7] = Severe acute respiratory syndrome coronavirus 2, Vero C1008

Row | SMILES | effect on hospitalized COVID-19 patients [1] | SARS-CoV-2 viral RNA production / viral genome copy number (N1 gene PCR) [3] | pseudotyped SARS-CoV-2 viral entry into human 293t-hACE2 cells [4] | IC50 [2, 7] [µM] | other results
1 | Cc1cccc(C)c1OCC(=O)N[C@@H](Cc1ccccc1)[C@@H](O)C[C@H](Cc1ccccc1)NC(=O)[C@H](C(C)C)N1CCCNC1=O [lopinavir] | little or no effect |  |  |  | 
2 | O[C@H]1[C@H](O)[C@@H](O)CN2CC[C@H](O)[C@H]12 [Castanospermine, castanospermine] |  | significantly reduced | significant decrease |  | IC50 [2]: 91 µM
3 | CCN(CCO)CCCC(C)Nc1ccnc2cc(Cl)ccc12 (centres unmarked) [hydroxychloroquine] | little or no effect |  |  |  | 
4 | OCCN1C[C@H](O)[C@@H](O)[C@H](O)[C@H]1CO [Miglitol, miglitol] |  | significantly reduced | significant decrease | 135 | cell survival [5]: completely restored; toxicity to human cells [6]: without toxicity
5 | C[C@H]1O[C@H](O[C@H]2[C@H](O)[C@@H](O)[C@@H](O[C@H]3[C@H](O)[C@@H](O)C(O)O[C@@H]3CO)O[C@@H]2CO)[C@H](O)[C@@H](O)[C@@H]1N[C@H]1C=C(CO)[C@@H](O)[C@H](O)[C@H]1O (some centres unmarked) [Acarbose, acarbose] |  |  |  | 105 | 
